# Reference: paper PMC10675528 (Pharmaceutics, 2023)
# Read-outs that look alike come from different tables or passages of the source.
# Key:
# [1] = Distribution coefficient (log D6.8), 1-octanol/pH 6.8 isotonic phosphate buffer; assay type: physicochemical; conditions: 1-octanol/isotonic phosphate buffer (pH 6.8)
# Procedure: To measure distribution coefficients of test compounds in 1-octanol/pH 6.8 isotonic phosphate buffer system, 1-octanol and pH 6.8 isotonic phosphate buffer was pre-saturated with each other. […] Distribution of test compounds in the organic phase/aqueous phase was determined by quantifying the concentration of each test compound in the organic or aqueous phase using a UV-Vis spectrophotometer (Shimadzu, Tokyo, Japan) at 263 nm. The following equation was employed to calculate the distribution coefficients (log D6.8). In the equation, CO is the initial concentration of a compound in the 1-octanol phase or aqueous phase; Cw is the equilibrium concentration of a compound in the aqueous phase; and COc is the equilibrium concentration of a compound in 1-octanol: log D6.8=log(COc/CW)=log(COc/(CO−COc]
# [2] = Incubation in the small intestinal contents of rats; assay type: in vitro ADME; conditions: rat small intestinal contents; for release of RLZ in the small intestinal contents: Supplementary Figure S2; for change in concentration in small intestinal contents: 12 h
# Procedure: (§1) Male Sprague-Dawley rats (250–260 g) were euthanized using CO2 gas, collecting the intestinal tract contents separately from the small intestine and cecum. The cecal contents were collected in an atmospheric bag (AtmosBag, Sigma, St. Louis, MO, USA) filled with N2 gas. The contents were suspended in pH 6.8 isotonic phosphate buffer (20%, w/v). To 5 mL of the cecal and small intestinal suspensions, each solution (5 mL) of RAS, SAR, and SGR (2.0 mM) dissolved of pH 6.8 isotonic phosphate buffer was added, and then incubated at 37 °C. Incubation with the cecal contents was conducted in the bag filled with N2 gas. A 0.5 mL portion of the mixtures was transferred to a microtube, followed by centrifugation at 10,000× g at 4 °C for 10 min. Supernatants (0.3 mL) were subjected to extraction with EA (0.3 mL) and subsequent centrifugation at 10,000× g at 4 °C for 7 min. The organic layer (0.2 mL) transferred to a new microtube was evaporated, followed by the addition of mobile phase A (0.2 mL).
# [3] = Incubation in the cecal contents of rats (conversion to RLZ); assay type: in vitro ADME, rat; conditions: for conversion to RLZ in cecal contents (in words): 1 mM, 10% cecal contents, anaerobic
# Procedure: as §1
# [4] = RLZ concentration in blood (plasma) after oral administration; assay type: in vivo, Sprague-Dawley rats
# Procedure: (§2) The plasma (0.25 mL) was extracted with EA (0.7 mL), and the organic layer (0.5 mL) was evaporated and dissolved in mobile phase A or B (0.1 mL). After filtration through a membrane filter (0.45 μm), the filtrate (20 μL) was injected to HPLC. To determine the concentrations of SAR and RAS in the blood, MeOH (0.9 mL) was added to the plasma (0.1 mL) and centrifuged at 10,000× g at 4 °C for 10 min. After filtration of the supernatants through a membrane filter (0.45 μm), the filtrate (20 μL) was injected to HPLC.
# [5] = Concentration of the conjugates in the blood after oral administration; assay type: in vivo, Sprague-Dawley rats; conditions: equimolar dose, 4, 8, 12 h, Supplementary Figure S4
# Procedure: as §2, with “Male Sprague-Dawley rats fasted for 24 h except for water. […] At 4, 8, and 12 h after the oral treatment, the plasma (0.3 mL) was obtained from the blood samples (collected via cardiac puncture) centrifuged at 10,000× g at 4 °C for 10 min. The” for “The”
# [6] = test system: DNBS-induced rat colitis; assay: DNBS-induced rat colitis, anticolitic effects; assay type: in vivo, Sprague-Dawley rats
# Procedure: (§3) Experimental colitis was induced in rats as previously described. […] The rats in each group were treated orally once daily, and the medication began three days after the induction of inflammation, and continued for six days. Twenty-four hours after the last medication, the anticolitic effects of drugs were evaluated assessing macroscopic and microscopic indices. Colonic-damage scores (CDS) were assigned using the modified scoring system shown in Supplementary Table S1. Colonic damage was scored using 4 independent observers blinded to the treatment conditions. Myeloperoxidase (MPO) activity was determined in the inflamed distal colon (4 cm) as previously described.
# To prepare samples for Western blot analysis, tissue (distal colon) samples (0.2 g) were minced and homogenized in 2.0 mL of pre-chilled radioimmunoprecipitation assay (RIPA) buffer, which was agitated on ice for 0.5 h, and then centrifuged at 10,000× g at 4 °C for 10 min. The centrifuged lysates were subjected to protein quantification using the bicinchoninic acid reagent (Thermo Fisher Scientific, Waltham, MA, USA). SDS-PAGE on a 7.5 or 10% gel was used for Western blot analysis of tissue lysates. To detect glycogen synthase (GS), phosphorylated GS (p-GS), cyclooxygenase (COX)-2, and inducible nitric oxide synthase (iNOS), anti-GS (Santa Cruz Biotechnology, Dallas, TX, USA), anti-p-GS (Cell Signaling Technology, Danvers, MA, USA), anti-COX-2 (sc-365374, Santa Cruz Biotechnology), and anti-iNOS (NOS-2) antibody (sc-7271, Santa Cruz Biotechnology) were used. SuperSignal chemiluminescence substrate (Thermo Fisher Scientific, Waltham, MA, USA) was used to visualize bands. α-Tubulin (Santa Cruz Biotechnology) was used as a loading control. The Western blot images were quantified using Image Lab software (version 5.2 build 14; Bio-Rad, Hercules, CA, USA). The mean of the quantified values was presented with the Western blot images in the figures (n = 3 for cell experiments, n = 5 for animal experiments).
# ELISA kits were used to determine the level of CINC-3 and IL-10 in the inflamed distal colon as described previously. The ELISA was performed according to the manufacturer’s instructions.
# [7] = test system: GSK3β; assay: p-GS level in the inflamed distal colon (Western blot); assay type: in vivo, Sprague-Dawley rats; conditions: oral once daily for 6 days
# Procedure: as §3
# To prepare samples for Western blot analysis, tissue (distal colon) samples (0.2 g) were minced and homogenized in 2.0 mL of pre-chilled radioimmunoprecipitation assay (RIPA) buffer, which was agitated on ice for 0.5 h, and then centrifuged at 10,000× g at 4 °C for 10 min. The centrifuged lysates were subjected to protein quantification using the bicinchoninic acid reagent (Thermo Fisher Scientific, Waltham, MA, USA). […] The Western blot images were quantified using Image Lab software (version 5.2 build 14; Bio-Rad, Hercules, CA, USA). The mean of the quantified values was presented with the Western blot images in the figures (n = 3 for cell experiments, n = 5 for animal experiments).
# [8] = 1-octanol/pH 6.8 buffer; cited from earlier work
# [9] = cited from earlier work
# [10] = Chemical stability in pH 1.2 and pH 6.8 buffers; assay type: physicochemical; conditions: 0.1 mM, 12 h
# Procedure: To test the chemical stabilities of SAR and SGR, the two compounds (0.1 mM) were incubated for 12 h in pH 1.2 HCl-NaCl buffer and pH 6.8 isotonic phosphate buffer, and change in the drug concentrations was monitored using HPLC analysis.
# [11] = test system: Caco-2 cell monolayer; assay: Cell permeability assay using Caco-2 monolayers; assay type: in vitro ADME; conditions: 500 µM apical, up to 24 h, compared with RAS
# Procedure: Caco-2 cells (4 × 10^5 per insert) were seeded in Transwell 6-well inserts with a pore size of 0.4 μm (SPL Inc., Houston, TX, USA). DMEM containing 1% penicillin/streptomycin was added to the basolateral (3.0 mL) and apical (insert) compartments (2.0 mL). The cells were grown until the cell monolayer’s transepithelial electrical resistance value (EMD Millipore, Billerica, MA, USA) reached 2000 Ω.cm^2. […] At appropriate time intervals, the drug concentration in the basolateral compartment was determined using HPLC.
# [12] = oral once daily for 6 days, ELISA
# [13] = SAR L and H doses, dose-dependent, Western blot
Structure (SMILES),logD at 12 h [1],release of RLZ in the small intestinal contents [2],conversion to RLZ in cecal contents (in words) [3],melting point,conjugate (prodrug) in the blood [5],"level of IL-10 in the inflamed colon [6, 12]",level of p-GS in the inflamed colon [7],change in concentration in buffer solutions [10],change in concentration in small intestinal contents [2],also measured
"N[C@@H](CC(=O)O)C(=O)Nc1nc2ccc(OC(F)(F)F)cc2s1 [AR, N-(L-aspart-1-yl)riluzole]",0.8,released a substantial amount of RLZ,conversion percentage to RLZ was lower than that of SAR,163 °C,,,,,,
"N[C@@H](CCC(=O)O)C(=O)Nc1nc2ccc(OC(F)(F)F)cc2s1 [GR, N-(L-glutam-1-yl)riluzole]",1,released a substantial amount of RLZ,,,,,,,,
"O=C(O)c1cc(/N=N/c2nc3ccc(OC(F)(F)F)cc3s2)ccc1O [RAS, reference compound]",,,,,detected,further augmented,substantially diminished,,,"peak blood concentration of RLZ relative to that after oral RLZ ([4]; oral, equimolar doses (10 mg/kg RLZ)): approximately one-fifth; distribution coefficient (log D6.8) [8]: 2.1; peak blood concentration of RLZ relative to that after oral RLZ [9]: approximately one-fifth"
"O=C(O)CCC(=O)N[C@@H](CC(=O)O)C(=O)Nc1nc2ccc(OC(F)(F)F)cc2s1 [SAR, (N-succinyl-L-aspart-1-yl)riluzole]",-2.1,,readily converted to RLZ in a time-dependent manner,202 °C (dec.),not detectable,further augmented,substantially diminished,No significant change,No significant change,"permeation through Caco-2 cell monolayer [11]: less efficient than RAS; AR detected during incubation of SAR with the cecal contents ([3]; cecal contents): no AR was detected; systemic absorption of RLZ (RLZ in blood, in words) ([4]; oral SAR 19.2 mg/kg): barely detectable; maximal plasma concentration of RLZ relative to oral RAS ([4]; oral, equimolar dose): approximately one-seventh; MPO activity in the inflamed distal colon ([6]; SAR L and H doses, dose-dependent): lowered; CINC-3 level in the inflamed distal colon ([6]; SAR L and H doses, dose-dependent, ELISA): lowered; COX-2 level in the inflamed distal colon [6, 13]: lowered; iNOS level in the inflamed distal colon [6, 13]: lowered; colonic damage and inflammation compared with SSZ ([6]; SAR even at lower dose vs SSZ 30 mg/kg): more effective than SSZ; all anticolitic indices compared with RAS ([6]; equimolar dose (equivalent to 10 mg/kg RLZ)): significantly superior to RAS; colonic damage (CDS, H&E staining) ([6]; oral once daily for 6 days, SAR equivalent to 5 (L) and 10 (H) mg/kg RLZ): mitigated the pathological state of the inflamed colon at both doses"
"O=C(O)CCC(=O)N[C@@H](CCC(=O)O)C(=O)Nc1nc2ccc(OC(F)(F)F)cc2s1 [SGR, (N-succinyl-L-glutam-1-yl)riluzole]",-2,,resistant to cecal conversion of RLZ,,,,,No significant change,No significant change,
